Source: PMC10538376 (Journal of the American Chemical Society, 2023)

Assays:
[1] = test system: Ac2-L-Lys-D-Ala-D-Lac (33); test: Model ligand binding, ligand of vancomycin-resistant organisms
[2] = test system: VanA vancomycin-resistant E. faecium (VRE); test: In vitro antimicrobial activity, VanA VRE; type: cell-based; settings: comparator named in value
[3] = test system: methicillin-resistant S. aureus (MRSA); test: In vitro antimicrobial activity, MRSA; type: cell-based
[4] = test system: methicillin-susceptible S. aureus (MSSA); test: In vitro antimicrobial activity, MSSA; type: cell-based
[5] = 30 vs CBP-vancomycin, 31 vs G3,CBP-vancomycin

| Substance | Ka, binding to model ligand 33 [1] | fold less effective binding of 33 than of Ac2-L-Lys-D-Ala-D-Ala [1] | antimicrobial activity against VanA VRE, result in words [2] | fold improvement of activity relative to 1 [3] | activity compared with the corresponding vancomycin derivative, in words [3, 5] | fold improvement of activity relative to 1 [4] | activity compared with the corresponding vancomycin derivative, in words [4, 5] |
| --- | --- | --- | --- | --- | --- | --- | --- |
| 2e,6e-dichlorovancomycin [Compound 1] | < 470 M⁻¹ | 1000 fold | inactive |  |  |  |  |
| vancomycin [reference compound] |  |  | inactive |  |  |  |  |
| CBP-tetrachlorovancomycin [Compound 30] |  |  | comparable to CBP-vancomycin | 50 fold | indistinguishable | 50 fold | indistinguishable |
